Entries after “also recorded” stand apart in the source; their conditions may differ. Read-outs that look alike come from different tables or passages of the source.
Experiments:
[1] = biological target: T1, human Mu receptor (Mu-RLuc/β-arrestin 2-RGFP) (Homo sapiens, UniProt P35372); assay: BRET Mu-RLuc/β-arrestin 2-RGFP interaction, SH-SY5Y cells; format: cell-based; details: BRET, SH-SY5Y cells, room temperature; at least 4 experiments in duplicate
T1 construct: expressed in transfected cells; host or cells: SH-SY5Y (retroviral expression; whole cells)

human Mu receptor = biological target: T2, human Mu receptor (Homo sapiens, UniProt P35372); assay: Calcium mobilisation, CHO cells with Mu and Gαqi5; format: cell-based; details: calcium mobilisation, at least 3 experiments in duplicate
T2 construct: expressed in transfected cells; host or cells: CHO

[2] = test system: electrically stimulated guinea pig ileum; assay: Electrically stimulated guinea pig ileum bioassay; details: for Kb: Cavia porcellus
Method: With approval of Animal Subjects Review Board of the University of Ferrara and from the Italian Ministry of Health (PROT-186) ileum tissues were taken from male albino guinea pigs of 350–400 g (Pampaloni, Pisa, Italy). The animals were treated in accordance with European guidelines (86/609/ECC) and national regulations (DL 116/92). They were housed in 560 x 320 x 180 mm cages (Techinplast), three per cage, under standard conditions (22°C, 55% humidity, 12 h light/dark cycle, light on at 7:00 h) with food (complete feed for guinea pig, Mucedola, Milano, Italy) and water ad libitum. The day of the experiment the animals were killed with an isofluorane overdose. Bioassay experiments were performed as previously described. The tissues were suspended in 5 ml organ baths containing Krebs solution (composition in mM: NaCl 118.5, KCl 4.7, MgSO4 1.2, KH2PO4 1.2, NaHCO3 25, CaCl2 1.8, glucose 10), hexamethonium bromide 22 μM, benadril 0.34 μM and oxygenated with 95% O2 and 5% CO2. The temperature was set at 37°C. At resting tension, 1 g was applied to the tissues. Tissues were stimulated through two platinum electrodes with a supramaximal rectangular pulse of 1 ms duration, 0.05 Hz frequency, 80V amplitude. Electrically evoked contractions were measured isotonically by means of Basile strain gauge transducers (Basile 7006; srl Ugo Basile, Varese, Italy) and recorded with a computer–based acquisition system (Power Lab 8, ADInstruments, USA). After an equilibration period of about 60 min, the contractions induced by electrical field stimulation were stable. At this time, cumulative concentration response curves to agonists were constructed (0.5 log unit steps). Antagonists were injected into the baths 15 minutes before constructing agonist concentration response curves.
Data are expressed as mean±SEM or with confidence intervals as appropriate. For more than 2 groups, data are analysed using ANOVA with post-hoc testing using Dunnett’s or Bonferroni’s test as appropriate. Where there are only 2 groups paired or unpaired t-tests were used. P values of less than 0.05 were considered significant. All curve fitting was accomplished using Graphpad-Prism (V6). […] In gpI experiments the antagonist potency (pKb) is calculated from the rightward shift of the agonist concentration response curve by a fixed antagonist concentration.

[3] = biological target: human NOP receptor (NOP-RLuc/Gβ1-RGFP) (Homo sapiens, UniProt P41146); assay: biochemical; format: biochemical
rats = assay: Rota-rod test after intrathecal infusion; format: in vivo, rat; details: same range of doses (0.1–1 nmol), data not shown
Method: For all the experiments described below, male Sprague-Dawley rats (Harlan, Varese, Italy), weighing approximately 280-300g at the beginning of the experimental procedure, were used. Animals were housed in CeSAL (Centro Stabulazione Animali da Laboratorio, University of Florence) and used at least one week after their arrival. One rat was housed per cage (size 26x41 cm); animals were fed with standard laboratory diet and tap water ad libitum, and kept at 23±1°C with a 12 h light/dark cycle, light at 7 a.m. […] All animals were monitored daily using a scoring system (based on: Appearance, Food and Water Intake, Clinical Signs, Natural Behaviour and Provoked Behaviour. Maximum score is 20 and animals reaching 10 are euthanized. In the experiments reported here no animals reached this score and none died before the end of the experiment) and at the end of the experiment were euthanized by CO2 overdose. […]
Rota-rod apparatus (Ugo Basile, Varese, Italy) consisted of a base platform and a rotating rod with a diameter of 6 cm and a non-slippery surface. […] The integrity of motor coordination was assessed on the basis of the number of falls from the rod in 60s measured 15, 30, 45, 60, 90, 120 and 180 min after treatments.

[4] = biological target: T3, human NOP receptor (NOP-RLuc/β-arrestin 2-RGFP) (Homo sapiens, UniProt P41146); assay: BRET NOP-RLuc/β-arrestin 2-RGFP interaction, HEK-293 cells; format: cell-based; details: BRET, HEK-293 cells, room temperature; at least 4 experiments in duplicate
T3 construct: expressed in transfected cells; host or cells: HEK-293 (retroviral expression; whole cells)

human NOP receptor = biological target: T4, human NOP receptor (Homo sapiens, UniProt P41146); assay: Calcium mobilisation, CHO cells with NOP and Gαqi5; format: cell-based; details: calcium mobilisation, CHO cells with human NOP and Gαqi5, Fluo-4 AM, 37°C; at least 3 experiments in duplicate
T4 construct: expressed in transfected cells; host or cells: CHO

[5] = biological target: T5, NOP receptor (CHOhNOP cells) (Homo sapiens, UniProt P41146); assay: cAMP assay, forskolin-stimulated CHOhNOP whole cells; format: cell-based; details: forskolin 1μM, mean (±SEM)
T5 construct: expressed in transfected cells; host or cells: CHO (Chinese Hamster Ovary)
Method: (§1) CHOhMu and CHOhNOP whole cells were suspended in Krebs/HEPES buffer, containing isobutylmethylxanthine (1mM) and forskolin (1μM).

[6] = biological target: T6, Mu receptor (CHOhMu cells) (Homo sapiens, UniProt P35372); assay: cAMP assay, forskolin-stimulated CHOhMu whole cells; format: cell-based; details: forskolin 1μM, mean (±SEM)
T6 construct: expressed in transfected cells; host or cells: CHO (Chinese Hamster Ovary)
Method: as §1

rat = details: in vivo; cited from earlier work
monkey = monkey tail withdraw assay; cited from earlier work
[7] = antagonist 15 minutes before agonist curve, from rightward shift, read-out: antagonist potency pKb against DeNo (converted)

T2 sequence (P35372 whole entry): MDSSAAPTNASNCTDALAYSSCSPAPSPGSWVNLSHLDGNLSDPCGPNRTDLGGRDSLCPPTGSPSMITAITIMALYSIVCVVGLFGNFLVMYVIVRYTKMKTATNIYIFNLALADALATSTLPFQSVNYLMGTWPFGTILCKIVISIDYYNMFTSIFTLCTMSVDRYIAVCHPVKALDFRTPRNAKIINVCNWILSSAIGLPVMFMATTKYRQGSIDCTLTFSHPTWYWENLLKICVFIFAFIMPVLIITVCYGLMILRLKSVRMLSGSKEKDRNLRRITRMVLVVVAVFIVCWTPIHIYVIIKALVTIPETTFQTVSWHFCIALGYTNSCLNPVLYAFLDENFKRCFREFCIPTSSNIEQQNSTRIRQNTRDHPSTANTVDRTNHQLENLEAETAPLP
Chain of human NOP receptor (NOP-RLuc/Gβ1-RGFP) (P41146 whole entry, looked up, the tested form may be a part): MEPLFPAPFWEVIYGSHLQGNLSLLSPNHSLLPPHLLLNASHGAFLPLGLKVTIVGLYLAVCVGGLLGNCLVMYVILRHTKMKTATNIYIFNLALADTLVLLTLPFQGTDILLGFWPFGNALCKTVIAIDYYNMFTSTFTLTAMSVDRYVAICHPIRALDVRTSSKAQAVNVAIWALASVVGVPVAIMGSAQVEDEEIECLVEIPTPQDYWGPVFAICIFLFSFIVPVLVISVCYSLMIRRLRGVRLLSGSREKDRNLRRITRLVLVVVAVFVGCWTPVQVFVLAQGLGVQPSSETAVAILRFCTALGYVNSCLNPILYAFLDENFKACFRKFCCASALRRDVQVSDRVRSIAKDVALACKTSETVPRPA
T5 sequence (P41146 whole entry): as the sequence (P41146 whole entry, looked up, the tested form may be a part) above
T4 sequence (P41146 whole entry): as the sequence (P41146 whole entry, looked up, the tested form may be a part) above
T3 sequence (P41146+P27652 fused): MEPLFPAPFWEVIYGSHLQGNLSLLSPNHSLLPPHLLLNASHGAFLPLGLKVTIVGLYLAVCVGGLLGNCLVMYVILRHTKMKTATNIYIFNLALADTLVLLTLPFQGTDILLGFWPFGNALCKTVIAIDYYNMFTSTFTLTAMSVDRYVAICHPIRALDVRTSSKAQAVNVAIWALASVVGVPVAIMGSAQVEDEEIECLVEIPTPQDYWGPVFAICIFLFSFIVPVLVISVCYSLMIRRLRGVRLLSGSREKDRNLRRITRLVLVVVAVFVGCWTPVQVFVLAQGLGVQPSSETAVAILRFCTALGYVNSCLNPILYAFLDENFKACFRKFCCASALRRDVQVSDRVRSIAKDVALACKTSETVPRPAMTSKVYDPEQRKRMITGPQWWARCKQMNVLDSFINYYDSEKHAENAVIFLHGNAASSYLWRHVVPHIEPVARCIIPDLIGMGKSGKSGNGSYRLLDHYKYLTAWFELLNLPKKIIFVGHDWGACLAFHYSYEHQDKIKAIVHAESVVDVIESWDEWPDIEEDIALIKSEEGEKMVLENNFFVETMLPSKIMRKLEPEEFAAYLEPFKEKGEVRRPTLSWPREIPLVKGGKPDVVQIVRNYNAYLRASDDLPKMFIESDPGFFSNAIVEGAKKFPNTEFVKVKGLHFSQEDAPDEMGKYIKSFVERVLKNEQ
T3 sequence (P32121 whole entry partner): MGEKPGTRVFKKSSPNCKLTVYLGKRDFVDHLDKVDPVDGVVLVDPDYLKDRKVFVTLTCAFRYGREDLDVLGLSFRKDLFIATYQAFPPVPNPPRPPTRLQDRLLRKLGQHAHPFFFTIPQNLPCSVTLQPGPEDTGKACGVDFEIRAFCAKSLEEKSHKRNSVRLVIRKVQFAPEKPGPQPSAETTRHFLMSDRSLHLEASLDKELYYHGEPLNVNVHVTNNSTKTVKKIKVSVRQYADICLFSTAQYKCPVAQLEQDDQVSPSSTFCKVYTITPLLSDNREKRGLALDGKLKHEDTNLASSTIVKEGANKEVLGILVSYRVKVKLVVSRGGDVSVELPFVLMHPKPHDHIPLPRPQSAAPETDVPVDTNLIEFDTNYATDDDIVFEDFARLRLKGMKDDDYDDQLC
T1 sequence (P35372+P27652 fused): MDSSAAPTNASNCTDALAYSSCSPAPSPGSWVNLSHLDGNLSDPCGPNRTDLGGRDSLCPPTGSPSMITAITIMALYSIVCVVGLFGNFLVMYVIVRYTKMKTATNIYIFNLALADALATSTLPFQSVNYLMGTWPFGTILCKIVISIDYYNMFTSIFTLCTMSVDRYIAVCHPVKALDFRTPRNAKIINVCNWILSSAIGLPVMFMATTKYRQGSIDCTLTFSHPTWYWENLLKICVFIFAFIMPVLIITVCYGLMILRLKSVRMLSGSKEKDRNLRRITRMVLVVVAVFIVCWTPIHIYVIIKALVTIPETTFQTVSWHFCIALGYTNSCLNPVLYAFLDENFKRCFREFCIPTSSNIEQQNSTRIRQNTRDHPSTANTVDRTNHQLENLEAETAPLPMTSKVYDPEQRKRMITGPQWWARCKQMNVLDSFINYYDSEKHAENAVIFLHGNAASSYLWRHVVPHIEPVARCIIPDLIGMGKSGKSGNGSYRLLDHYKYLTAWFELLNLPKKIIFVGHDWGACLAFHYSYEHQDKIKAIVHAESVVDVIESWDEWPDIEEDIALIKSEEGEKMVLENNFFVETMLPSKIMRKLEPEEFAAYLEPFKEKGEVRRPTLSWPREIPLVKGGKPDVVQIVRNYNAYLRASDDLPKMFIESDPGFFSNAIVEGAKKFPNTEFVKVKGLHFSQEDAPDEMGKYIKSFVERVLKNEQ
T1 sequence (P32121 whole entry partner): as the sequence (P32121 whole entry partner) above
T6 sequence (P35372 whole entry): as the sequence (P35372 whole entry) above

For CC(C)C[C@H](NC(=O)[C@H](CCCCN)NC(=O)[C@H](CCCNC(=N)N)NC(=O)[C@H](C)NC(=O)[C@H](CO)NC(=O)[C@H](CCCCN)NC(=O)[C@H](CCCNC(=N)N)NC(=O)[C@H](C)NC(=O)CNC(=O)[C@@H](NC(=O)[C@H](Cc1ccccc1)NC(=O)CNC(=O)CNC(=O)[C@@H](N)Cc1ccccc1)[C@@H](C)O)C(=O)N[C@@H](C)C(=O)N[C@@H](CC(N)=O)C(=O)N[C@@H](CCC(N)=O)C(=O)O [N/OFQ, nociceptin/orphanin FQ], the “β-arrestin 2 Mu pEC50 (CL95%)” value [1] was “inactive”, the “Mu Emax ± SEM” value (human Mu receptor; % over basal fluorescence, CHO cells with human Mu and Gαqi5) was “Inactive” and the “Mu pEC50 (CL95%)” value (human Mu receptor; CHO cells with human Mu and Gαqi5, Fluo-4 AM, 37°C) was “Inactive”.
Work on Cc1cccc2c1CC[C@H](CN1CCC(c3c(Cl)cccc3Cl)CC1)C[C@@H]2O [SB-612111] yielded a Kb ([2]; antagonist 100 nM, 15 minutes before agonist curve, from rightward shift, read-out: antagonist potency pKb against N/OFQ (converted)) of 4.37 nM and a Kb [2, 7] of 85.1 nM.
For C[C@@H](NC(=O)[C@@H](N)Cc1ccc(O)cc1)C(=O)N[C@@H](Cc1ccccc1)C(=O)NCC(=O)N[C@@H](Cc1ccc(O)cc1)C(=O)N1CCC[C@H]1C(=O)N[C@@H](CO)C(N)=O [dermorphin], the “Gβ1-protein NOP pEC50(CL95%)” value [3] was “very weak only increasing BRET ratio at micromolar concentrations; also recorded: crc incomplete”, the Emax (human Mu receptor; % over basal fluorescence, CHO cells with human Mu and Gαqi5, SEM) was 234 ± 14% and the “animal performance in the rotarod test” value (rats) was “impaired animal performance in the rotarod test”. For the same compound, the “β-arrestin 2 NOP pEC50 (CL95%)” value [4] was “completely inactive” and the “NOP pEC50 (CL95%)” value (human NOP receptor) was “crc incomplete”.
In the case of C=C[C@@]1(C)CC(=O)[C@]2(O)[C@@]3(C)[C@@H](O)CCC(C)(C)[C@@H]3[C@H](O)[C@H](OC(C)=O)[C@@]2(C)O1 [forskolin], the “increase in cAMP production compared to basal, CHOhNOP” value [5] is reported as 21.23 (±3.86) fold and the “increase in cAMP production compared to basal, CHOhMu” value [6] is reported as 24.3 (±1.79) fold.
For CN1CC[C@]23c4c5ccc(O)c4O[C@H]2[C@@H](O)C=C[C@H]3[C@H]1C5 [morphine], the time to tolerance (rat) is given as 11 days.
With C=CCN1CC[C@]23c4c5ccc(O)c4O[C@H]2C(=O)CC[C@@]3(O)[C@H]1C5 [naloxone, Naloxone] the Kb [2, 7] was 28.8 nM, the Kb ([2]; read-out: antagonist potency pKb against dermorphin (converted), antagonist 15 minutes before agonist curve, from rightward shift) was 2.69 nM and the “antagonist potency pKb against N/OFQ” value ([2]; antagonist 100 nM, 15 minutes before agonist curve, from rightward shift) was “does not affect the inhibitory action of N/OFQ”.
In the case of [Dmt^1]N/OFQ(1–13)-NH2, the “increase in potency over N/OFQ” value (monkey) is listed as 30 fold.
